# Target: Solute carrier family 12 member 2 (Homo sapiens) (UniProt P55011)
# Assay: NKCC1 ion transport inhibition – HEK-293 overexpressing cells, thallium flux, dose response (AID 1919674)
# Conditions: HEK-293 SLC12A2 OE, thallium flux fluorescence (FLIPR)
# Sequence of Solute carrier family 12 member 2 (Homo sapiens) (P55011 whole entry, looked up): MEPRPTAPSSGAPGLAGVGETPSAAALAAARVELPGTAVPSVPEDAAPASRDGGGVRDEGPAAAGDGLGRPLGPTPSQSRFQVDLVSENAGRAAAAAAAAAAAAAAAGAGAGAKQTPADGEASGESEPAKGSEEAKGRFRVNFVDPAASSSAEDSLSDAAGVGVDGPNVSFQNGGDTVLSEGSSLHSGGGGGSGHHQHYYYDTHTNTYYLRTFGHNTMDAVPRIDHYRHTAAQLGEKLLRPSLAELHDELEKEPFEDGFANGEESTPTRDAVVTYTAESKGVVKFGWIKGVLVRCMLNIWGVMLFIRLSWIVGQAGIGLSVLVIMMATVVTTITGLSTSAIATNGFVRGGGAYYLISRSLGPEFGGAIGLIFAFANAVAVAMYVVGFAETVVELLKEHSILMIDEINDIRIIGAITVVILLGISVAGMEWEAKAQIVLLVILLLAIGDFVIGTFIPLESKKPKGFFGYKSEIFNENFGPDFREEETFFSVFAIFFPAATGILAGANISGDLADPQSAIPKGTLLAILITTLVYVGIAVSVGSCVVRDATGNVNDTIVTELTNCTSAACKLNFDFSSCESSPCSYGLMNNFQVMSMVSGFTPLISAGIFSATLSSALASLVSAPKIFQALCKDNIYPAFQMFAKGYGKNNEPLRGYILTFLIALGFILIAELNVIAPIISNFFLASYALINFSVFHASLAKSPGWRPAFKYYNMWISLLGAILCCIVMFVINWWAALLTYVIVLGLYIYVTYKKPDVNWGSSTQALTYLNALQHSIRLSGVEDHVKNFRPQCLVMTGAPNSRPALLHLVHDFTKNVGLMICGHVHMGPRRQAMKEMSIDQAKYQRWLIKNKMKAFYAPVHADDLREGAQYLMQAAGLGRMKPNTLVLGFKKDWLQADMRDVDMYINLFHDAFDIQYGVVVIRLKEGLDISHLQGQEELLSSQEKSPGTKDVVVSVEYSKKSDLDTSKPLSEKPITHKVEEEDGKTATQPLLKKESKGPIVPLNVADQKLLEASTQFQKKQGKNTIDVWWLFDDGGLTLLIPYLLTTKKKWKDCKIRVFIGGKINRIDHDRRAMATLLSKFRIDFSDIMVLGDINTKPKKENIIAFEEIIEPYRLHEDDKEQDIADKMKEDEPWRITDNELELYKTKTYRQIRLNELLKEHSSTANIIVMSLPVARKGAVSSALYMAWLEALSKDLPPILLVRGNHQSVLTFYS
smiles,measurement,value
[Tl+],IC50,600 µM

# Source: PubChem BioAssay AID1919674
